Experimental data: patent publication US20070249677A1, “Treatment of Osteoarthritis and Dosing Regimen for Arzoxifene” (priority 2004, published 2007)

What was measured:
[1] = Half life of arzoxifene in human patients; assay type: in vivo
[2] = tested on: Hartley albino guinea pigs (spontaneous cartilage degeneration / osteoarthritis); assay: Guinea Pig Spontaneous Osteoarthritis Study; assay type: in vivo
Text: Hartley albino guinea pigs undergo spontaneous cartilage degeneration, and they have been used as a convenient small animal model system to study osteoarthritis (OA) and have potential physiologic relevance to the OA that spontaneously develops in humans. Disease-related morphologic changes observed in the guinea pigs are similar to the histopathologic alternations in the joints of humans with OA. Other significant similarities between the OA in Hartley guinea pigs and that in humans are also known. Huebner, Collagenase 1 and Collagenase 3 Expression in a Guinea Pig Model of Osteoarthritis, 41 Arthritis Rheum. 877-890 no. 5(May 1998). The Hartley guinea pig spontaneous model can be used to study the effects of Arzoxifene on OA.
Hartley strain guinea pigs, approximately three month old males, are used for the study. (In one study, 5.5 month old males were used, as indicated by FIG. 8). The Hartley albino guinea pigs are provided ad lib access to food (Ca 1.1%, p 0.6%, Vitamin D 3400 IU/kg) and water. The guinea pigs are dosed subcutaneously with Arzoxifene at 0.03, 0.1, 0.3, and/or 0.5 mg/kg/d for about two to four months. The study generally includes 15 guinea pigs per treatment group, except for the baseline, which generally includes 10 guinea pigs. Urine and serum are to be collected at 0, 2, 4, 6, 12, and 16 weeks for biomarker evaluation. The right knee joints are harvested for histology and the left knee joint for surface osteoarthritis scoring.
The effects observed on OA lesion areas by quantitative image analyses are illustrated by the graph in FIG. 3. The Zones of the lesion in the knee joint are illustrated by FIG. 1. Osteoarthritis changes are further evaluated by histologically quantitative analyses on paraffin embedded sections. The severities of joint damage are assessed for the depth of chondrocyte lesion and loss of proteoglycan on a score 0-5 for increasing severity on each third of the cartilage surface (Animla molde of osteoarthritis, A. M. Bendele (J Musculoskel Neuron Interact 2001: 1: 363-376)). Osteophyte development also evaluated by measuring the size.

[3] = tested on: postmenopausal women with osteopenia; assay: OA biomarkers on a subset of samples from the Phase 2 osteopenia study; assay type: in vivo, human; details: no selection for OA
Experimental: A Phase 2, multicenter, randomized, double-blind, placebo- and raloxifene-controlled study of arzoxifene enrolled 219 postmenopausal women with osteopenia (defined as bone mineral density [BMD] t-score at the lumbar spine and/or femoral neck >−2.5 and ≦−1). The study assessed the effects of arzoxifene compared with raloxifene HCl (60 mg/day) and placebo on biochemical markers of bone metabolism, cardiovascular disease risk markers, and on overall safety.
CTXII was not evaluated as the assay is validated for urine specimens, which were not available.

[4] = tested on: ovariectomized Sprague-Dawley rats; assay: Intermittent Dosing Analysis of Arzoxifene in Ovariectomized Rats (Prevention Model), femur QCT; assay type: in vivo, rat; details: Ovx rats, 1 mg/kg oral
Experimental: Arzoxifene will be administered using several different dosing intervals for 5 weeks to 6 month-old rats, one week after ovariectomy.
Live phase: A total of about 78 female Sprague-Dawley rats (Harlan Sprague Dawley Inc) are used for this study design. 72 of the rats are ovariectomized (Ovx) at 6 months of age and 6 rats are used as sham-ovariectomized controls. Rats were maintained on a 12 hour light/dark cycle at 22° C. with ad lib access to food (TD 89222 with 0.5% Ca and 0.4% P, Teklad, Madison, Wis.) and water. Sham and Ovx controls are orally administered a vehicle of 20% hydroxy propyl-β-cyclodextrin (Aldrich Chemical Co). Arzoxifene (1 mg/kg) treated rats are dosed daily, every other day (QOD), every third day (Q3D), weekly on Monday (QW), or twice a week on Monday and Friday (M/F), as indicated. Each group contains 6 animals/grp and the treatment duration is about 5 weeks.
Analyses: Intact femora are removed and cleaned of soft-tissue and preserved in 50% ethanol/saline at 4° C. Femora are centered with respect to the QCT gantry (Research M, Stratec). A coronal scout scan of the specimen is generated first in 2 Dimension (2D) and then femora are scanned to measure bone mineral density (BMD, mg/cc), bone mineral content (BMC, mg), and cross-sectional area (mm2).

[5] = Half life of arzoxifene in laboratory animals; assay type: in vivo

COc1ccc(-c2sc3cc(O)ccc3c2Oc2ccc(OCCN3CCCCC3)cc2)cc1 [arzoxifene]
half life [1]: longer than one day
OA progression based on OA surface area and osteophyte development ([2]; 0.5 mg/kg/d subcutaneous, one study (FIG. 8, 5.5 month old males)): did not have a statistical effect on OA progression
effect on preventing or slowing the progression of OA ([2]; Hartley guinea pigs, subcutaneous, about two to four months, OA lesion areas by image analysis (FIG. 3)): positive effect on preventing or slowing the progression of OA
OA progress: OA surface area and osteophyte development ([2]; lower doses tested (0.03, 0.1, 0.3 mg/kg/d subcutaneous), FIGS. 4-7): favorable effect on preventing or delaying the OA progress
COMP biomarker difference between placebo and arzoxifene [3]: modest but significant biomarker differences
human cartilage glycoprotein-39 (YKL-40) biomarker difference between placebo and arzoxifene [3]: modest but significant biomarker differences
loss of BMD, distal femur metaphysis by QCT ([4]; daily, about 5 weeks (FIG. 9)): prevented
loss of BMD, distal femur metaphysis by QCT ([4]; every other day (QOD), about 5 weeks (FIG. 9)): prevented
loss of BMD, distal femur metaphysis by QCT ([4]; every third day (Q3D), about 5 weeks (FIG. 9)): prevented
loss of BMD, distal femur metaphysis by QCT ([4]; twice a week Monday and Friday (M/F), about 5 weeks (FIG. 9)): prevented
loss of BMD, distal femur metaphysis by QCT ([4]; weekly on Monday (QW), about 5 weeks, QW BMD intermediate between Ovx and Sham and less than Sham (FIG. 9)): only partially efficacious
half life [5]: consistent with a daily dosing regimen
